Measured values taken from US20100144660A1, “USE OF N,N-DIETHYL-2-[-4-(PHENYLMETHYL)-PHENOXY]ETHANAMINE MONOHYDROCHLORIDE (DPPE) IN CANCER THEREAPY” (YM Biosciences Inc., priority 2001, published 2010).
Like-named read-outs stand apart in the source and are kept apart here.

Assays:
[1] = competition assays; cited from earlier work
[2] = test system: breast cancer patients who relapsed following surgery; assay: Phase III clinical trial: DPPE and doxorubicin versus doxorubicin alone, survival analysis by subgroup; format: in vivo, human; conditions: for 1 yr (one year survival) / MST (median survival time): only ER known; for median survival time (MST) / one year survival: duration 6-36 month, prior chemotherapy group (FIG. 27), DPPE added to doxorubicin versus doxorubicin alone
Protocol: Two arms of treatment were involved in this trial. Patients were randomly selected to participate in either arm. In one arm, patients were treated with DPPE and doxorubicin, in the other arm patients were treated with doxorubicin alone.
In the trial, patients were permitted to stay on doxorubicin for a maximum of about 7 cycles (5 months). […] DPPE was administered to patients in the amount of 6 mg/kg (or 240 mg/M^2) over 80 minutes, with the concurrent administration of doxorubicin over the last 20 minutes at a […] of 60-90 mg/M^2.
The patients in the trial were assigned to subgroups based on duration, i.e. the length of time between the initial diagnosis of breast cancer and the appearance of advanced disease. The subgroups were: (i) less than or equal to 6 months, (ii) between 6 months and 36 months and (iii) more than 36 months.
For this subgroup analysis, the 3 duration subgroups (<6 m, 6-36 m and >36 m) are further subdivided into groups of patients that (i) have undergone prior chemotherapy, and (ii) have not undergone prior chemotherapy.
For this analysis, the patients in the trial were divided into subgroups based on Eastern Cooperative Oncology Group (ECOG) Performance Status (PS).
In this example, the patients were divided into subgroups of those patients that originated from Eastern Europe and those that originated mainly from Western Europe and North America.

[3] = test system: MCF-7 breast cancer cells; conditions: ER−/AEBS+ or ER+/AEBS+ cells; cited from earlier work
[4] = test system: normal and malignant cells; conditions: cited from earlier work
[5] = test system: intracellular histamine receptors; conditions: cited from earlier work
[6] = test system: hormone-unresponsive metastatic prostate cancer; conditions: intravenous infusion of DPPE over approximately one hour prior to cyclophosphamide; cited from earlier work
[7] = cited from earlier work
[8] = Geographically restricted subset
[9] = Geographically restricted subset (Eastern Europe excluded)
[10] = duration <36 m, ER+ (known ER status)
[11] = duration <36 m, ER− (known ER status)
[12] = duration >36 M, ER+ (known ER status)
[13] = duration >36 m, ER− (known ER status)
[14] = response PD (progressive disease)

CCN(CC)CCOc1ccc(C(=O)c2ccc(F)cc2)cc1 [DFPE, N,N-diethyl-2-[4-(4′-fluorophenone)-phenoxy]ethanamine]
potency compared to DPPE [1]: greater potency

COc1cccc2c1C(=O)c1c(O)c3c(c(O)c1C2=O)C[C@@](O)(C(=O)CO)C[C@@H]3O[C@H]1C[C@H](N)[C@H](O)[C@H](C)O1 [DOX, doxorubicin]
1 yr survival ([2]; ECOG PS 0): 75%
MST ([2]; ECOG PS 0): 20.3 m
1 yr survival ([2]; ECOG PS 1): 48%
MST ([2]; ECOG PS 1): 11.7 m
1 yr survival ([2]; ECOG PS 2): 33%
MST ([2]; ECOG PS 2): 5.9 m
1 yr (one year survival) ([2]; ER+ patients): 62%
MST (median survival time) ([2]; ER+ patients): 16.5 m
1 yr (one year survival) ([2]; ER− patients): 36%
MST (median survival time) ([2]; ER− patients): 9.5 m
Survival by ECOG = 0, 1 yr [2, 8]: 63%
Survival by ECOG = 0, MST [2, 8]: 16.5 m
Survival by ECOG = 1, 1 yr [2, 8]: 42%
Survival by ECOG = 1, MST [2, 8]: 11.5 m
Survival by ER status ER−, 1 yr [2, 8]: 39%
Survival by ER status ER−, MST [2, 8]: 9 m
Survival by ER+, 1 yr [2, 8]: 55%
Survival by ER+, MST [2, 8]: 15.5 m
Survival by duration: 6-36 m, MST [2, 8]: 9 m
Survival by response: CR/PR, 1 yr [2, 8]: 62%
Survival by response: SD, 1 yr [2, 8]: 53%
Survival by response: SD, MST [2, 8]: 12 m
Survival for ER+ vs ER− within the arm [2, 8]: ER+ considerably better than ER−
Overall survival 1 yr [2, 9]: 50%
Overall survival MST [2, 9]: 12 m
Overall survival 1 yr ([2]; Whole trial (Table 10)): 60%
Overall survival MST ([2]; Whole trial (Table 10)): 15.6 m
Survival by ECOG = 0, 1 yr ([2]; Whole trial (Table 10)): 75%
Survival by ECOG = 0, MST ([2]; Whole trial (Table 10)): 20.3 m
Survival by ECOG = 1, 1 yr ([2]; Whole trial (Table 10)): 48%
Survival by ECOG = 1, MST ([2]; Whole trial (Table 10)): 11.7 m
Survival by ER status ER−, 1 yr ([2]; Whole trial (Table 10)): 36%
Survival by ER status ER−, MST ([2]; Whole trial (Table 10)): 9.5 m
Survival by ER+, 1 yr ([2]; Whole trial (Table 10)): 62%
Survival by ER+, MST ([2]; Whole trial (Table 10)): 16 m
Survival by duration: 6-36 m, MST ([2]; Whole trial (Table 10)): 11.5 m
Survival by response: CR/PR, 1 yr ([2]; Whole trial (Table 10)): 74%
Survival by response: SD, 1 yr ([2]; Whole trial (Table 10)): 59%
Survival by response: SD, MST ([2]; Whole trial (Table 10)): 17 m
Survival for ER+ vs ER− within the arm ([2]; Whole trial (Table 10)): ER+ considerably better than ER−
lived on average (survival) ([2]; all breast cancer patients of the trial): fifteen
median survival time (MST) [2]: 10.7 months
one year survival [2]: 40%
1 yr survival ([2]; duration <6 m): 56%
MST ([2]; duration <6 m): 15 m
1 yr survival [2, 10]: 52%
MST [2, 10]: 15.5 m
1 yr survival [2, 11]: 36%
MST [2, 11]: 9.5 m
1 yr survival ([2]; duration >6 but <36 m): 45%
MST ([2]; duration >6 but <36 m): 11.5 m
1 yr survival [2, 12]: 82%
MST [2, 12]: 18 m
1 yr survival ([2]; duration >36 m): 77%
MST ([2]; duration >36 m): 20.3 m
1 yr survival [2, 13]: 66%
MST [2, 13]: 12 m
median survival time (FIG. 22) ([2]; duration >36 months): 28.6356
median survival time (FIG. 21) ([2]; duration of ≦36 months): 12.1973
1 yr survival ([2]; response CR/PR): 74%
MST ([2]; response CR/PR): 28.5 m
1 yr survival [2, 14]: 34%
MST [2, 14]: 10.5 m
1 yr survival ([2]; response SD (stable disease)): 59%
MST ([2]; response SD (stable disease)): 17 m

CCN(CC)CCOc1ccc(Cc2ccccc2)cc1.Cl [DPPE, N,N-diethyl-2-[-4-(phenylmethyl)-phenoxy]ethanamine monohydrochloride]
Survival by response: PD, comparison of arms ([2]; Geographically restricted subset, DPPE/DOX versus DOX): DPPE a little better at first
survival benefit from the addition of DPPE ([2]; duration 6-36 m, no prior chemotherapy group): little, if any, benefit
median survival time (MST) [2]: > 17.5 months
one year survival [2]: under 70%
survival benefit from the addition of DPPE ([2]; duration >36 m, prior and no prior chemotherapy subgroups): neither of the subgroups show any benefit
in vitro growth of MCF-7 breast cancer cells [3]: inhibit
cell proliferation in vivo ([4]; animal model): inhibit normal cell proliferation while promoting malignant cell proliferation
interaction with doxorubicin (Adriamycin) ([4]; tumour-bearing animals treated concurrently with DPPE): act synergistically
antagonism of intracellular histamine receptors [5]: potent antagonist
effect on anti-cancer activity and toxicity of cyclophosphamide [6]: potentiate the anti-cancer activity and ameliorate the toxicity
toxicity ([7]; 4 mg/kg (160 mg/M^2) over 1 hour intravenously): non-toxic
clinical side effects ([7]; 8 mg/M^2 over 24 to 72 hours): do not result in clinical side effects
toxicity ([7]; 240 mg/M^2 over 1 hour): may result in CNS toxicity
